The text below walks through data of ChEMBL document CHEMBL1158133, “Cytotoxic flavaglines and bisamides from Aglaia edulis” (J Nat Prod, 2006).

One data set concerns MCF7. Description: Cytotoxicity against human MCF7 cells. The conditions noted are these: read-out: ED50 (the source's name). The format is functional.
A further data set has as its system Lu1. Description: Cytotoxicity against human Lu1 cells. Format: functional. The settings on record: read-out: ED50 (the source's name).
The test system of a further data set is P388. Kind of data set: In vivo antitumor activity against mouse P388 cellsleukemia model at 4.5 mg/kg, ip. The conditions noted are these: route intraperitoneal. Format: functional.
A further data set concerns LNCaP. Description: Cytotoxicity against human LNCAP cells. The format is functional. The settings on record: read-out: ED50 (the source's name).
Data set [1] in a line: Cytotoxicity against HUVEC. The conditions noted are these: human, HUVEC cells; read-out: ED50 (the source's name). Format: cell-based.

Each structure is given as a SMILES string. Values after ≈ are worked out from the molar mass of the structure shown.

A word on the T/C: it is the ratio of treated to control. Turning to `COc1ccc([C@@]23Oc4cc5c(c(OC)c4[C@]2(O)[C@H](OC(C)=O)[C@H](C(=O)N(C)C)[C@H]3c2ccccc2)OCO5)cc1`, the EC50 in the data set on MCF7 was determined as 0.02 µg/mL (≈ 0.0356 µM); in the data set with Lu1, 0.001 µg/mL (≈ 0.00178 µM); in the data set on LNCaP, 0.01 µg/mL (≈ 0.0178 µM). The molecule also had a T/C in the data set on P388 of 110%. Further, the CC50 in data set [1] was 0.5 µg/mL (≈ 0.89 µM).
For the molecule `COc1ccc([C@@]23Oc4cc5c(c(OC)c4[C@]2(O)[C@H](OC(C)=O)[C@H](C(=O)N(C)C)[C@H]3c2ccccc2)OCO5)cc1OC`, the EC50 in the data set on MCF7 amounted to 0.8 µg/mL (≈ 1.35 µM); in the data set on Lu1, 0.5 µg/mL (≈ 0.845 µM); in the data set on LNCaP, 0.3 µg/mL (≈ 0.507 µM). Further, in data set [1], the CC50 amounted to 0.5 µg/mL (≈ 0.845 µM).
Consider `COc1ccc([C@]23Oc4cc5c(c(OC)c4[C@](O)([C@H](C(=O)N4CCCC4NC(=O)CC(C)C)[C@H]2c2ccccc2)[C@@H]3OC(C)=O)OCO5)cc1` (stereo not given in full), for which the EC50 with MCF7, in the data set with Lu1 and with LNCaP was above 5 µg/mL in each case. For the same molecule, the CC50 in data set [1] was above 5 µg/mL.
As to `COc1ccc(-c2oc3cc(OC)c(OC)c(O)c3c(=O)c2OC)cc1`, the EC50 in the data set with MCF7, in the data set with Lu1 and in the data set with LNCaP was above 5 µg/mL in each case. Also, the CC50 in data set [1] was above 5 µg/mL.
Consider `COc1ccc([C@]23Oc4cc5c(c(OC)c4[C@](O)([C@H](C(=O)N4CCCC4NC(=O)C=C(C)C)[C@H]2c2ccccc2)[C@@H]3O)OCO5)cc1` (stereo not given in full) [19,20-DEHYDROEDULIRIN A], for which the EC50 in the data set with MCF7, with Lu1 and in the data set with LNCaP was above 5 µg/mL in each case. The CC50 in data set [1] is above 5 µg/mL.
In the case of `COC(=O)[C@@]1(c2ccc(OC)cc2)Oc2cc3c(c(OC)c2C(=O)[C@H](C(=O)N2CCC[C@@H]2NC(=O)C=C(C)C)[C@H]1c1ccccc1)OCO3` [19,20-DEHYDROEDULISONE A], the EC50 in the data set on MCF7, in the data set on Lu1 and in the data set with LNCaP was above 5 µg/mL each time. Further, in data set [1], the CC50 was above 5 µg/mL.
With `COc1ccc(C2C(=O)Oc3cc4c(c(OC)c32)OCO4)cc1` (stereo not given) [AGLALACTONE], the EC50 in the data set on MCF7, in the data set with Lu1 and in the data set on LNCaP was above 5 µg/mL in each case. For the same molecule, in data set [1], the CC50 is above 5 µg/mL.
Regarding `CS/C=C/C(=O)NC1CCCN1C(=O)/C=C/c1ccccc1` (stereo not given) [AGLAMIDE A], the EC50 in the data set with MCF7, in the data set with Lu1 and with LNCaP was above 5 µg/mL each time. Further, the CC50 in data set [1] was above 5 µg/mL.
As for `C[S+]([O-])/C=C/C(=O)NC1CCCN1C(=O)/C=C/c1ccccc1` (stereo not given) [AGLAMIDE B], the EC50 in the data set on MCF7, with Lu1 and in the data set on LNCaP was above 5 µg/mL each time. In addition, the CC50 in data set [1] was above 5 µg/mL.
Regarding `CC(C)CC(=O)NC1CCCN1C(=O)/C=C/c1ccccc1` (stereo not given) [AGLAMIDE C], the EC50 in the data set with MCF7, with Lu1 and with LNCaP was above 5 µg/mL in each case. For the same molecule, the CC50 in data set [1] is above 5 µg/mL.
For the molecule `COC1CCCN1C(=O)/C=C/c1ccccc1` (stereo not given) [AGLAMIDE D], the EC50 in the data set on MCF7, in the data set on Lu1 and with LNCaP was above 5 µg/mL each time. In addition, the CC50 in data set [1] was above 5 µg/mL.
On to `COc1ccc([C@@]23Oc4cc5c(c(OC)c4[C@]2(O)[C@H](O)[C@H](C(=O)N(C)C)[C@H]3c2ccccc2)OCO5)cc1` [AGLAROXIN A], for which the EC50 came out at 0.06 µg/mL (≈ 0.115 µM) in the data set on MCF7, 0.04 µg/mL (≈ 0.077 µM) in the data set with Lu1 and 0.02 µg/mL (≈ 0.0385 µM) in the data set on LNCaP. Also, the CC50 in data set [1] came to 0.1 µg/mL (≈ 0.192 µM).
For `COc1ccc([C@]23Oc4cc5c(c(OC)c4[C@](O)([C@H](C(=O)N4CCCC4NC(=O)CC(C)C)[C@H]2c2ccccc2)[C@@H]3O)OCO5)cc1` (stereo not given in full) [EDULIRIN A], in that order: above 5 µg/mL, above 5 µg/mL, above 5 µg/mL and above 5 µg/mL.
In the same order, the values of `COc1ccc([C@]23Oc4cc5c(c(OC)c4[C@](O)([C@H](c4ccccc4)[C@H]2C(=O)N2CCCC2NC(=O)CC(C)C)[C@@H]3O)OCO5)cc1` (stereo not given in full) [EDULIRIN B] are above 5 µg/mL, above 5 µg/mL, above 5 µg/mL and above 5 µg/mL.
In the same order, the values of `COc1ccc([C@]23Oc4cc5c(c(OC)c4[C@](O)([C@@H](c4ccccc4)[C@@H]2C(=O)N2CCCC2NC(=O)CC(C)C)[C@@H]3O)OCO5)cc1` (stereo not given in full) [ISOEDULIRIN A] are above 5 µg/mL, above 5 µg/mL, above 5 µg/mL and above 5 µg/mL.
As to `COc1cc2ccc(=O)oc2cc1O` [SCOPOLETIN], the EC50 in the data set on MCF7, in the data set on Lu1 and in the data set on LNCaP was above 5 µg/mL each time. For the same molecule, in data set [1], the CC50 is above 5 µg/mL.
